Columns and labels:
[1] = Retention of iopamidol injected into the submucous tissue of rat large intestine, X-ray photography and CT scanning; format: in vivo, Wistar rats; settings: normal rats, 20 μl injected into submucous tissue of the left colon, after one hour
Method: Next, the retention of physiologically active substances in the submucous tissue of normal rats was analyzed by diagnostic imaging using X-ray and CT, which are routinely used clinically. Twelve-week-old male Wistar rats were anesthetized with Nembutal, and then an ultrathin endoscope for humans was inserted into the large intestines and 20 μl of iopamidol, a contrast medium, was endoscopically injected alone into the submucous tissue of the left colon using a local injection needle.
X-ray photography and CT scanning was carried out after one hour.

[2] = test system: DSS-induced colitis model mice; assay: Histology (hematoxylin-eosin) of large intestine in DSS colitis model mice; format: in vivo, C57BL/6J mice; settings: HE-stained sections of large intestine
Method: (§1) A colitis model mice was prepared by allowing C57BL/6J mice (female, six weeks old; CLEA Japan Inc.) to freely drink […] containing 3% dextran sulfate sodium (DSS; Wako Pure Chemical Industries Inc.) for five days. This DSS-induced colitis model has excellent reproducibility, and is thus used widely as a standard experimental model for inflammatory bowel diseases such as mouse ulcerative colitis and Crohn's disease (Sasaki N, J Inflamm. 2005 2: 13; as a review, Pucilowska J B et al. Am J Physiol Gastroenterol Liver Physiol. 279: G653-G659, 2000).
(§2) The same GalNAc4S-6ST siRNA (0.3 μg/head) as used in Example 5 was injected to the submucous tissue of mouse large intestine, while the mice were allowed to drink water containing 3% DSS. The control groups used were: a group injected with scramble siRNA (“BLOCK-iT Fluorescent Oligo (Invitrogen)” in Example 4) and an untreated group in which mice were allowed to drink DSS water only. The body weight and disease activity index (DAI) score (Kihara M, Gut. 2003 52: 713-9) were recorded for five days while the mice were allowed to drink water containing 3% DDS. Then, the mice were sacrificed on the fifth day.
Next, tissue sections were prepared from collected large intestines and stained with hematoxylin-eosin. The resulting histological images were analyzed (FIG. 10).

[3] = molecular target: T1, ribonuclease (RNase A) (Bos taurus, UniProt P61823); assay: Stability test for GalNAc4S-6ST siRNA at 37° C., agarose gel electrophoresis; format: in vitro ADME
T1 construct: purchased SIGMA
T1 sequence (P61823 27-150): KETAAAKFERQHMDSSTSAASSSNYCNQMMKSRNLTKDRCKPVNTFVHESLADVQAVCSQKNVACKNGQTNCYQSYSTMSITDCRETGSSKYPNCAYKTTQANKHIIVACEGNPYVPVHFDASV
Method: In this Example, GalNAc4S-6ST siRNA, the same substance used in Example 5, was assessed for its stability. First, test solutions were prepared by adding 1 μg of GalNAc4S-6ST siRNA to 200 μl of sterile phosphate buffer or 0.1% atelocollagen and stirring the mixtures at 4° C. for 20 minutes. 0.1% atelocollagen was prepared by combining 1% atelocollagen (Koken) with ten volumes of sterile phosphate buffer and stirring the mixture at 4° C. for 16 hours. Then, 40 μg of a ribonuclease (RNase A; SIGMA) was added to the prepared test solutions of GalNAc4S-6ST siRNA, and the mixtures were incubated to react at 37° C. The reaction time was 5, 15, 30, 45, or 60 minutes. 500 μl of RNA iso (Takara Bio) was added to the test solutions after reaction. The mixtures were incubated on ice for five minutes, and centrifuged at 14,000 rpm for 15 minutes. The resulting supernatants were collected, and 500 μl of isopropanol and 1 μl of glycogen (Invitrogen) were added thereto. The mixtures were incubated for 15 minutes, and centrifuged at 14,000 rpm for 15 minutes. The supernatants were discarded, and the pellets were saved. 1 ml of 75% ethanol was added to the pellets, and the mixtures were centrifuged at 14,000 rpm for 15 minutes. After this step was repeated twice, the pellets were dried and dissolved in 25 μl of injection solvent (Otsuka Pharmaceutical). 10 μl each of the solutions were combined with 2 μl of Loading Dye (Invitrogen). 3.5% agarose gel was prepared using UltraPure Agarose (Invitrogen), and the samples were electrophoresed in a Mupid-2 plus (ADVANCE) at 100 V for 20 minutes. After electrophoresis, the gel was shaken for 20 minutes in a stain solution prepared by 10,000 times diluting Ethidium Bromide (Invitrogen) with 1×LoTE (composition: 3 mM Tris-HCl (pH 7.5) (Invitrogen), 0.2 mM EDTA (pH 7.5) (Sigma Aldrich Japan)). The gel was photographed with Fluourchem (Innotech) and analyzed.

[4] = Nucleic acid kinetics in the submucous tissue of mouse large intestine, siRNA concentration by ELISA; format: in vivo; settings: mice, 0.3 μg/10 μl at three sites
Method: Next, in order to also confirm the retention of injected siRNA in the submucous tissue of the large intestine by biochemical methods, the concentration of siRNA in the large intestine was determined by using the ELISA method for direct quantitation of siRNA according to a published report (Rosie Z et al. Analytical Biochem. 304: 19-25, 2002). The nucleotide sequences of GalNac 4S-6ST siRNA used in this Example are shown below, but the sequences are not limited to the example shown herein.
GalNAc4S-6ST siRNA (0.3 μg/10 μl) was injected at three sites to the submucous tissue of large intestine in eight-week-old female C57BL/6.1 mice by the same method described in Example 3. The mice were sacrificed 0.5, 3, 6, or 24 hours after injection to prepare histological samples of the large intestine. The siRNA concentrations were determined by the ELISA methods.
1 μg/ml siRNA before injection was used as a positive control without any additional treatment.

[5] = test system: GalNAc4S-6ST gene expression; assay: Gene knockdown by siRNA administered into the submucous tissue of large intestine in DSS colitis model mice, quantitative PCR; format: in vivo, mouse; settings: 0.3 μg/head into submucous tissue of large intestine, day 5
Method: as §1
The same GalNAc4S-6ST siRNA (0.3 μg/head) as used in Example 5 was injected to the submucous tissue of mouse large intestine, while the mice were allowed to drink water containing 3% DSS. […] The body weight and disease activity index (DAI) score (Kihara M, Gut. 2003 52: 713-9) were recorded for five days while the mice were allowed to drink water containing 3% DDS. […]
1 ml of RNA iso (Takara Bio) was added to 50 mg each of excised organs (large intestine and kidney). […] The RNA concentrations of extracted samples in UV plates (Corning Costar) were determined using a plate reader (POWER Wave XS; BIO-TEK).
Next, reverse transcription reaction (cDNA synthesis) is conducted by the following procedure. […] For quantitative PCR, SYBR Premix Kit (TAKARA) and Real-time PCR thermal cycler DICE (TAKARA) were used. […]

[6] = test system: DSS-induced colitis model mice; assay: Length of the large intestine (colonic contraction) in DSS colitis model mice; format: in vivo, C57BL/6J mice; settings: day five, p<0.05, t test
Method: as §1, §2
Next, the length of the large intestine was measured after sacrificing mice on day five. […] The length of the large intestine is a crucial indicator that reflects the intestinal fibrosis.

[7] = test system: DSS-induced colitis model mice; assay: Disease activity index (DAI: stool consistency, fecal occult blood) in DSS colitis model mice; format: in vivo, C57BL/6J mice; settings: compared to the control group
Method: as §1
The same GalNAc4S-6ST siRNA (0.3 μg/head) as used in Example 5 was injected to the submucous tissue of mouse large intestine, while the mice were allowed to drink water containing 3% DSS. The control groups used were: a group injected with scramble siRNA (“BLOCK-iT Fluorescent Oligo (Invitrogen)” in Example 4) and an untreated group in which mice were allowed to drink DSS water only. The body weight and disease activity index (DAI) score (Kihara M, Gut. 2003 52: 713-9) were recorded for five days while the mice were allowed to drink water containing 3% DDS. […]
The colitis activity index (DAI) was analyzed by the same method described in Example 7.
The first day (day 0) of feeding with DSS water is defined as 1, and the stool consistency and fecal occult blood in each mouse were recorded. […]

[8] = presence of ribonuclease (RNase A), phosphate buffer

Molecule: C[C@H](O)C(=O)Nc1c(I)c(C(=O)NC(CO)CO)c(I)c(C(=O)NC(CO)CO)c1I [iopamidol, N,N′-Bis[2-hydroxy-1-(hydroxymethyl)ethyl]-5-[(2S)-2-hydroxypropanoylamino]-2,4,6-triiodoisophthalamide]
- Retention at the injection site, CT images [1]: retained specifically at the injection sites and did not spread to other slices
- Retention at the injection site, X-ray images [1]: retained in the submucous tissue of the colon without intraperitoneal leakage and transfer to other sections

Molecule: GalNAc4S-6ST siRNA: siRNA of SEQ ID NOs: 1 and 2 against GalNAc4S-6ST (Gene Bank accession number NM_015892), Hokkaido System Science (chain 1 GGAGCAGAGCAAGAUGAAUACAAUCAG; chain 2 GAUUGUAUUCAUCUUGCUCUGCUCCAU; listed as RNA, further chemistry not given here)
- Epithelial disruption, infiltration of inflammatory cells into lamina propria and submucosa, and thickening of muscular layer [2]: markedly suppressed
- Stability (gel band) ([3]; absence of ribonuclease, sterile phosphate buffer, after 60 minutes): relatively stable
- Time after which the band disappeared [3, 8]: 30 min
- Time point at which siRNA degradation was observed [3, 8]: 15 min
- Gel band ([3]; siRNA embedded in 0.1% atelocollagen, ribonuclease (RNase A), after 30 minutes): faint but detectable
- siRNA concentration in the large intestine ([4]; 0.5 hour after injection): retained at a very high concentration
- siRNA concentration in the large intestine ([4]; 24 hours after injection): continually remained retained
- siRNA concentration in the large intestine ([4]; three hours after injection): decreased by half
- Expression of GalNAc4S-6ST in the kidney [5]: remained unchanged
- Expression of GalNAc4S-6ST in the large intestine [5]: significantly suppressed the increased expression
- Colonic contraction (length of the large intestine) [6]: significantly suppressed
- DAI score (stool consistency and fecal occult blood) [7]: lower

— patent publication US11485974B2, “Method of fixing and expressing physiologically active substance” (STELIC INSTITUTE & CO., priority 2007, dated 2022)
